In paper PMC3664642, “A Peptide against Soluble Guanylyl Cyclase α1: A New Approach to Treating Prostate Cancer” (PLoS ONE, 2013):
“Also recorded” adds a separate entry of the source. Where no end group is shown, it is not given here.

Tests used:
Assay type in all cases: cell-based
[1] = tested on: PARP cleavage in LNCaP cells; assay: PARP cleavage by Western blot, LNCaP cells; conditions: 50 µM each drug, 8 hrs, Fig. 5D
Method: (§1) For proliferation, cells were grown in medium containing 2% FBS extracted with dextran-coated charcoal (DCC). 48 hours later, ethanol or 1 nM R1881 was added to the cells followed by peptide treatment. The MTT assay (Sigma) was used as before to determine cell number. For apoptosis, 5000 cells were seeded in 96-well plates and treated with Vehicle (DMSO), Peptide A-8R (25 µM), Etoposide (50 µM) (Sigma) at different time points. The Caspase (3/7) activity was measured using Apo-ONE Homogeneous Caspase-3/7 assay kit (Promega). PARP cleavage was also used to measure apoptosis, and is described below.
Western blotting was performed as described using primary antibodies against sGCα1 (Cayman Chemical), pan-Akt (Cell Signaling Technology), phospho-AKT (S473, T308) (Cell Signaling Technology), phospho-PDK1 (Cell Signaling Technology), phospho-GSK-3β (Cell Signaling Technology), PARP (Cell Signaling Technology), and β-Actin (Abcam).
Figure 5 Peptide A-8R induces apoptosis of prostate cancer cells. (A) LNCaP, (B) PC-3, or (C) Cos cells were treated with Vehicle, Peptide A-8R (10 µM), or Etoposide (20 µM) for 0–24 hrs and subjected to a Caspase assay to measure apoptosis. […] (D) LNCaP cells were treated with Vehicle, Peptide C-8R, Peptide A-8R, or Etoposide (each drug at 50 µM) for 8 hrs and monitored for apoptosis by measuring PARP cleavage using Western blotting. […]

[2] = tested on: prostate cancer cells; assay: Cytotoxicity against prostate cancer cells (summary); conditions: hormone-dependent and hormone-refractory prostate cancer cells
Method: as §1

[3] = tested on: ROS generation in PC-3 cells; assay: ROS generation, PC-3 cells; conditions: 0–30 min; Fig. S5A
Method: Intracellular ROS levels were evaluated using the fluorescent probe 5-(and-6)-chloromethyl-2′,7′-dichlorodihydrofluorescein diacetate (CM-H2DCFDA) (Invitrogen). After treatments with Peptide A-8R, C81 cells were loaded with 20 µM CM-H2DCFDA and incubated at 37°C for 30 min in the dark. Cells were then washed with PBS and fluorescence was measured at the excitation and emission wavelengths of 490 and 535 nm, respectively, using a multi-well fluorescence plate reader. For NAC (N-acetyl cysteine) (Sigma) rescue experiment, cells were pretreated with 1 or 5 mM NAC for 2 hours before adding Peptide A-8R.
Supplementary file pone.0064189.s005.tif: Figure S5 ROS generation is not induced by Peptide A-8R in PC-3 cells and Peptide C-8R in LNCaP cells. (A) PC-3 cells were treated with Vehicle or different concentrations of Peptide A-8R or Peptide C-8R, as shown, or (B) LNCaP cells were treated with Vehicle or different concentrations of Peptide A-8R or Peptide C-8R, or H2O2 and monitored for ROS generation after 0–30 (A) or 30 (B) min. (C) LNCaP cells were treated with Vehicle, Peptide C-8R (10 µM), Peptide A-8R (10 µM), or Etoposide (100 µM) for 0–8 hrs and subjected to a Caspase assay to measure apoptosis. Bar graphs represent averages of three independent experiments plus standard deviations. (C) All activities are relative to the first condition, and this activity was set to either 1. […]

[4] = target: T1, sGCα1 (Homo sapiens, UniProt Q02108); assay: Immunocytochemistry co-localization in LNCaP cells; conditions: 25 µM Biotin-labeled Peptide A-8R, 2 hrs, Fig. 2A
T1 sequence (Q02108 1-690): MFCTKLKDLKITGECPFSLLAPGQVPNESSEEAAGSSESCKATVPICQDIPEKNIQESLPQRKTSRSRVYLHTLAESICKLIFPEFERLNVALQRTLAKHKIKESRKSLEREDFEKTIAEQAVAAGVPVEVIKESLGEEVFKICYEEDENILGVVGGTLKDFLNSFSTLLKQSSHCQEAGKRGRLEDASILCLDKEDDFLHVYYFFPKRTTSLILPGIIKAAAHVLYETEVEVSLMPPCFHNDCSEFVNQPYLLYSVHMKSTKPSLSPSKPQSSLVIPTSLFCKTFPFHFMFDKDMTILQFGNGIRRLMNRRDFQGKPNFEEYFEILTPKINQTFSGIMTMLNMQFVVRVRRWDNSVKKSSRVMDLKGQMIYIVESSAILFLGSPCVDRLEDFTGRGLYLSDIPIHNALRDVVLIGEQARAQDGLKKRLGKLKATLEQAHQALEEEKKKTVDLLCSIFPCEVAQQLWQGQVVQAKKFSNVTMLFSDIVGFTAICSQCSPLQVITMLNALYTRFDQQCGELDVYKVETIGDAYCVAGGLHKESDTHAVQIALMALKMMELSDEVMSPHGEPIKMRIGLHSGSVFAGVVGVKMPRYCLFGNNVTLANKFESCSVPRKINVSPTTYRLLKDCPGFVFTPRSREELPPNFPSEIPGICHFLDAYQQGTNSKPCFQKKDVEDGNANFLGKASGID
Method: Immunocytochemistry was used to study the subcellular localization of sGCα1 and Biotin-labeled Peptide-8R in LNCaP cells. FITC-labeled anti-sGCα1 antibody (1∶100 dilution; Santa Cruz Biotechnology), anti-Biotin antibody (1∶200; Santa Cruz Biotechnology) were used for immunocytochemisty as described.
Figure 2 Peptide A-8R interacts with sGCα1 in prostate cancer cells. (A) LNCaP cells were treated with 25 µM Biotin-labeled Peptide A-8R for 2 hrs and subjected to immunocytochemistry using anti-sGCα1 or anti-Biotin antibody to measure subcellular co-localization of endogenous sGCα1 and Peptide A-8R. DAPI was used to stain nuclei. (B) LNCaP cytosolic extracts were incubated with Peptide A-8R-Biotin and subjected to purification using streptavidin-agarose. This pull-down experiment was repeated with competing excess amount of unlabeled Peptide C-8R or Peptide A-8R. In both cases Western blotting was used to measure the co-purification of sGCα1. (C) LNCaP cell extract was incubated with different concentrations of Peptide A-8R-FITC and endogenous sGCα1 was immunoprecipitated. Co-purified Peptide A-8R-FITC was quantified by measuring fluorescence signal emission. Nonlinear regression analysis was used to determine an affinity for Peptide A-8R binding to sGCα1. […] Cell number was measured after 0–48 hrs of incubation. […]

Substance: Ac-TFCKAFPFHIIRRRRRRRR [Peptide A-8R]
- induction of PARP cleavage [1]: to the same extent as by Etoposide
- cytotoxic activity against prostate cancer cells (summary) [2]: strongly cytotoxic to prostate cancer cells, rapidly inducing apoptosis; also recorded: strongly cytotoxic to sGCα1-expressing prostate cancer cells, but not to sGCα1-deficient cells; also recorded: showed the strongest activity
- ROS generation, PC-3 cells [3]: do not respond; also recorded: not induced
- co-localization with sGCα1 [4]: colocalizes with sGCα1 only in the cytoplasm of LNCaP cells
